# PMC12140300, “Development of Carbon‐11 Labeled Pyrimidine Derivatives as Novel Positron Emission Tomography (PET) Agents Enabling Brain Sigma‐1 Receptor Imaging” (Advanced Science, 2025)
# Test system: σ1R
# Assay: NHP PET/MR imaging with kinetic modelling, baseline and self-blocking
# Format: in vivo
# Conditions: for VT, Logan graphical method [T* = 40 min] / VT, Two tissue compartment model [2TCM] / VT, One tissue compartment model [1TCM]: male NHP brain
# From the text: Next, we conducted PET/MR imaging studies using [^11C]CNY‐01 in non‐human primates (NHP) to evaluate its safety and translational potential in large animals further. A 90‐minute dynamic PET scan with [^11C]CNY‐01 focusing on the head of a male rhesus monkey. We performed a full kinetic analysis with one‐ and two‐tissue compartment models (1TCM and 2TCM), as well as logan graphical analysis (LGA), using metabolite‐corrected arterial input function (AIF), similar to previous studies,^[ [44], [45] ^] to determine which model best suit kinetics of [^11C]CNY‐01. In most brain regions, 2TCM provided a better fit than 1TCM, as indicated by the Akaike information criterion (AIC) and model selection criterion (MSC) (Table 1). […] To test whether non‐parametric graphical approaches can be used for [^11C]CNY‐01, we performed LGA with an assumption of steady‐state time (T*) of 40 mins (Table 1). […] For voxel‐wise estimation of VT across the whole brain, we then used LGA (Figure 4A).
# We also performed a self‐blocking scan for [^11C]CNY‐01, administering 0.5 mg kg^−1 of unlabeled CNY‐01 10 min before the radiotracer. The metabolism of the radiotracer in the blocking scan was similar to that of the baseline (Figure S6, Supporting Information). The radioactivity concentration was lower in arterial blood samples in the blocking scan compared to the baseline, while brain uptake was higher in the blocking scan (Figure S6, Supporting Information). […] The variation of the radiotracer plasma protein binding (fp) between baseline and blocking scan may explain our observation in a way similar to that of the previous study.^[ [46] ^] Nonetheless, due to this study's lack of fp data, the exact explanation for our observation remains to be determined further.
# The PET/MR imaging protocol in non‐human primates (NHP) followed our previous work.^[ [55], [56] ^] A male rhesus macaque (8.55 kg) was anesthetized with an intramuscular injection of xylazine (0.5–2.0 mg kg^−1) and ketamine (10 mg kg^−1), followed by endotracheal intubation. V‐ and A‐lines were inserted, and anesthesia was maintained using isoflurane. [^11C] CNY‐01 was administered after antecubital catheterization, with an arterial line prepared for radiometabolite analysis. In the self‐blocking scan, the same animal (6.80 kg) was scanned with a 10‐min pre‐treatment of 0.5 mg kg^−1 unlabeled CNY‐01. PET/MR imaging data were acquired using a Siemens TIM‐Trio scanner (3T) equipped with a Siemens BrainPET insert module and an in‐house‐built 8‐channel head coil. The dynamic scan began, followed by administration of [^11C] CNY‐01 (5.1 mCi). The list mode data were reconstructed using the 3D ordinary Poisson expectation‐maximization algorithm (16 subsets and 6 iterations) with detector efficiency, decay, dead time, random coincidences, scatter, and attenuation corrections with gradually increasing time frams. All images were reconstructed into 153 slices with 256 × 256 pixels and 1.25‐mm isotropic voxel size. High‐resolution structural MRI scans were acquired by using a multi‐echo magnetization‐prepared rapid gradient echo (ME‐MPRAGE) sequence with parameters as follows: TR = 2400 ms; TE1/TE2/TE3/TE4 = 1.57/3.29/5.01/6.73 ms; inversion time = 1200 ms; flip angle = 9°; spatial resolution = 1 mm isotropic.
# For macaque brain PET/MR imaging analysis, we applied the INIA19 Template^[ [57] ^] and NeuroMaps Atlas in accordance with our prior work.^[ [58] ^] In brief, reconstructed PET images were registered to the INIA19 Primate Brain Atlas^[ [57] ^] with the following processing steps^[ [59] ^]: The high‐resolution T1‐weighted MR image, co‐registered with the PET image, was first affine‐registered to the INIA19 atlas. By using the same transformation, dynamic PET data was registered to the atlas. A spatial smoothing with a 6‐mm FWHM Gaussian kernel was applied to PET images. Twenty ROIs determined in the INIA19 atlas were used to derive regional TACs. […]
# [1] = ACC, 10-min pretreatment of unlabeled CNY-01 (0.5 mg kg^−1)
# [2] = Amygdala, 10-min pretreatment of unlabeled CNY-01 (0.5 mg kg^−1)
# [3] = CBL, 10-min pretreatment of unlabeled CNY-01 (0.5 mg kg^−1)
# [4] = Caudate, 10-min pretreatment of unlabeled CNY-01 (0.5 mg kg^−1)
# [5] = Globus-pallidus, 10-min pretreatment of unlabeled CNY-01 (0.5 mg kg^−1)
# [6] = Hippocampus, 10-min pretreatment of unlabeled CNY-01 (0.5 mg kg^−1)
# [7] = Hypothalamus, 10-min pretreatment of unlabeled CNY-01 (0.5 mg kg^−1)
# [8] = Ifc, 10-min pretreatment of unlabeled CNY-01 (0.5 mg kg^−1)
# [9] = Insula, 10-min pretreatment of unlabeled CNY-01 (0.5 mg kg^−1)
# [10] = Midbrain, 10-min pretreatment of unlabeled CNY-01 (0.5 mg kg^−1)
# [11] = Motor, 10-min pretreatment of unlabeled CNY-01 (0.5 mg kg^−1)
compound,measurement,setting,value
Cc1nc(-c2ccc(O[11CH3])cc2)nc(OCCCN2CCCCC2)c1Cl [[^11C]CNY-01],VT in blocking scan compared to baseline,"0.5 mg kg^−1 unlabeled CNY-01 10 min before the radiotracer, NHP",higher VT across the brain
same,"VT, Logan graphical method [T* = 40 min]",[1],29.37 ml/cm^3
same,"VT, Two tissue compartment model [2TCM]",[1],25.84 ml/cm^3
same,"VT, Logan graphical method [T* = 40 min]","ACC, baseline",13.32 mL cm^−3
same,"VT, One tissue compartment model [1TCM]","ACC, baseline",9.76 mL cm^−3
same,"VT, Two tissue compartment model [2TCM]","ACC, baseline",15.87 mL cm^−3
same,"VT, Logan graphical method [T* = 40 min]",[2],34.47 ml/cm^3
same,"VT, Two tissue compartment model [2TCM]",[2],29.18 ml/cm^3
same,"VT, Logan graphical method [T* = 40 min]","Amygdala, baseline",14.75 mL cm^−3
same,"VT, One tissue compartment model [1TCM]","Amygdala, baseline",10.83 mL cm^−3
same,"VT, Two tissue compartment model [2TCM]","Amygdala, baseline",13.78 mL cm^−3
same,"VT, Logan graphical method [T* = 40 min]",[3],21.96 ml/cm^3
same,"VT, Two tissue compartment model [2TCM]",[3],18.25 ml/cm^3
same,"VT, Logan graphical method [T* = 40 min]","CBL, baseline",11.65 mL cm^−3
same,"VT, One tissue compartment model [1TCM]","CBL, baseline",8.96 mL cm^−3
same,"VT, Two tissue compartment model [2TCM]","CBL, baseline",11.68 mL cm^−3
same,"VT, Logan graphical method [T* = 40 min]",[4],28.10 ml/cm^3
same,"VT, Two tissue compartment model [2TCM]",[4],24.46 ml/cm^3
same,"VT, Logan graphical method [T* = 40 min]","Caudate, baseline",12.71 mL cm^−3
same,"VT, One tissue compartment model [1TCM]","Caudate, baseline",9.58 mL cm^−3
same,"VT, Two tissue compartment model [2TCM]","Caudate, baseline",14.24 mL cm^−3
same,"VT, Logan graphical method [T* = 40 min]",[5],33.31 ml/cm^3
same,"VT, Two tissue compartment model [2TCM]",[5],26.67 ml/cm^3
same,"VT, Logan graphical method [T* = 40 min]","Globus-pallidus, baseline",15.11 mL cm^−3
same,"VT, One tissue compartment model [1TCM]","Globus-pallidus, baseline",11.32 mL cm^−3
same,"VT, Two tissue compartment model [2TCM]","Globus-pallidus, baseline",14.90 mL cm^−3
same,"VT, Logan graphical method [T* = 40 min]",[6],24.15 ml/cm^3
same,"VT, Two tissue compartment model [2TCM]",[6],18.46 ml/cm^3
same,"VT, Logan graphical method [T* = 40 min]","Hippocampus, baseline",10.31 mL cm^−3
same,"VT, One tissue compartment model [1TCM]","Hippocampus, baseline",8.04 mL cm^−3
same,"VT, Two tissue compartment model [2TCM]","Hippocampus, baseline",10.36 mL cm^−3
same,"VT, Logan graphical method [T* = 40 min]",[7],24.54 ml/cm^3
same,"VT, Two tissue compartment model [2TCM]",[7],18.97 ml/cm^3
same,"VT, Logan graphical method [T* = 40 min]","Hypothalamus, baseline",11.42 mL cm^−3
same,"VT, One tissue compartment model [1TCM]","Hypothalamus, baseline",8.36 mL cm^−3
same,"VT, Two tissue compartment model [2TCM]","Hypothalamus, baseline",10.60 mL cm^−3
same,"VT, Logan graphical method [T* = 40 min]",[8],20.73 ml/cm^3
same,"VT, Two tissue compartment model [2TCM]",[8],18.09 ml/cm^3
same,"VT, Logan graphical method [T* = 40 min]","Ifc, baseline",9.62 mL cm^−3
same,"VT, One tissue compartment model [1TCM]","Ifc, baseline",7.36 mL cm^−3
same,"VT, Two tissue compartment model [2TCM]","Ifc, baseline",10.89 mL cm^−3
same,"VT, Logan graphical method [T* = 40 min]",[9],31.86 ml/cm^3
same,"VT, Two tissue compartment model [2TCM]",[9],26.77 ml/cm^3
same,"VT, Logan graphical method [T* = 40 min]","Insula, baseline",14.70 mL cm^−3
same,"VT, One tissue compartment model [1TCM]","Insula, baseline",11.17 mL cm^−3
same,"VT, Two tissue compartment model [2TCM]","Insula, baseline",13.96 mL cm^−3
same,"VT, Logan graphical method [T* = 40 min]",[10],34.11 ml/cm^3
same,"VT, Two tissue compartment model [2TCM]",[10],25.70 ml/cm^3
same,"VT, Logan graphical method [T* = 40 min]","Midbrain, baseline",13.39 mL cm^−3
same,"VT, One tissue compartment model [1TCM]","Midbrain, baseline",11.03 mL cm^−3
same,"VT, Two tissue compartment model [2TCM]","Midbrain, baseline",14.71 mL cm^−3
same,"VT, Logan graphical method [T* = 40 min]",[11],21.53 ml/cm^3
same,"VT, Two tissue compartment model [2TCM]",[11],16.66 ml/cm^3
same,"VT, Logan graphical method [T* = 40 min]","Motor, baseline",9.39 mL cm^−3
